US4020060A, “7-[α-Amino- ω-(3,4-methylenedioxyphenyl)acylamido]cephalosporanic acid derivatives” (Richardson-Merrell Inc., priority 1975, dated 1977)
Values after ≈ are worked out from the molar mass of the structure shown. Read-outs that look alike come from different tables or passages of the source.

Experiments:
[1] = system: Diplococcus pneumoniae; assay: in vivo protection of mice challenged with a fatal bacterial infection; settings: Streptococcus pneumoniae, 1 and 4 hours after challenge, read-out: dose required per treatment to protect fifty percent of the infected mice (ED50)
Description: (§1) The following example illustrates the in vivo activity of the compounds of this invention.
(§2) Several groups of 10 mice are challenged with a fatal bacterial infection. Various dose levels of the test compound are administered orally or subcutaneously to separate groups of these animals 1 and 4 hours after challenge. After three or four days, depending upon the test organism, the number of survivors are recorded at each dose level and the dose required per treatment to protect fifty percent of the infected mice (ED50) is calculated by the method described by Reed and Muench, Amer. J. Hyg. 27, 493-497 (1938).

[2] = system: Streptococcus pyogenes; assay: as above; settings: 1 and 4 hours after challenge, read-out: dose required per treatment to protect fifty percent of the infected mice (ED50)
Description: as §1, §2

[3] = system: Salmonella schottmuelleri; assay: as above; settings: sc, subcutaneous, 1 and 4 hours after challenge, read-out: dose required per treatment to protect fifty percent of the infected mice (ED50)
Description: as §1, §2

[4] = system: Escherichia coli; assay: in vitro minimal inhibitory concentration, two-fold serial dilutions in trypticase soy broth; type: cell-based; settings: 24 hours at 37° C.
Description: (§3) The following example illustrates the in vitro activity of the compounds of this invention.
(§4) Two-fold serial dilutions of the test compound are made in trypticase soy broth. A series of tubes of both containing different concentrations of the test compound are inoculated with the particular bacterial culture used for in vitro activity. The inoculated tubes are examined for the inhibition of bacterial growth after 24 hours of incubation at 37° C. The following table summarizes the minimal inhibitory concentration (MIC) for the various bacterial cultures tested with the compound 7-[2-amino-2-(3,4-methylenedioxyphenyl)acetamido]desacetoxycephalosporanicacid.

[5] = system: Staphylococcus aureus; assay: as above; type: cell-based; settings: 24 hours at 37° C.
Description: as §3, §4

[6] = system: Diplococcus pneumoniae; assay: as above; type: cell-based; settings: Streptococcus pneumoniae, 24 hours at 37° C.
Description: as §3, §4

[7] = system: Streptococcus pyogenes; assay: as above; type: cell-based; settings: 24 hours at 37° C.
Description: as §3, §4

[8] = system: Salmonella schottmuelleri; assay: as above; type: cell-based; settings: 24 hours at 37° C.
Description: as §3, §4

CC1=C(C(=O)O)N2C(=O)C(NC(=O)C(N)c3ccc4c(c3)OCO4)C2SC1 (stereo not shown) [7-[2-Amino-2-(3,4-methylenedioxyphenyl)acetamido] desacetoxycephalosporanic acid]
ED50 ([1]; po, per os): 45 mg/kg | ED50 ([1]; sc, subcutaneous): 40 mg/kg | ED50 ([2]; po, per os): 1 mg/kg | ED50 ([2]; sc, subcutaneous): 0.9 mg/kg | ED50 [3]: 26 mg/kg | MIC [4]: 50 µg/mL (≈ 128 µM) | MIC [5]: 1.6 µg/mL (≈ 4.09 µM) | MIC [6]: 3.1 µg/mL (≈ 7.92 µM) | MIC [7]: 0.8 µg/mL (≈ 2.04 µM) | MIC [8]: 50 µg/mL (≈ 128 µM)
